US20070009571A1, “Novel haptotactic peptides” (Hadasit Medical Research Services & Development Ltd., priority 1998, published 2007)
Entries after “also recorded” stand apart in the source; their conditions may differ. Where two headings read alike, the source gives them in different places. Marks after values point to notes of the source that are not given here. No end group written: not given here.

How the values were obtained:
BAEC = experiment: Chemotaxis, micro-Boyden chamber assay; type: cell-based, bovine
Procedure: Chemotaxis was evaluated using 48-well plastic Microtaxis micro-Boyden chambers. Polycarbonate filters with pore size of 8 μm were coated with fibronectin for 2 hours at 37° C. Conditioned medium from 3T3 cells served as a positive control. Test solution (26 μl) containing the tested peptides or protein or medium with no additions that served as control were placed in the lower chamber, covered with the filter. 50 μl cell suspension was introduced to the upper chamber of each well. The number of cells/well varied in the range of 5,000-10,000 in different experiments. The device loaded with cells was incubated at 37° C. for 4-5 hours. The filter was then removed and the non-migrating cells on its upper part were carefully wiped off with a damp cotton swab. The filter was fixed in methanol and stained with Accustain (modified Wright stain solution Sigma Diagnostics: St. Lois, Mo.). Cells that crossed or were retained within the filter were counted microscopically at low magnification so that the viewing field corresponded to the whole area of each well. Each experimental variant was performed in duplicated or triplicates and the data from, three successful experiments were normalized to the values of the positive control and averaged.
The chemotactic response of BAEC to a soluble gradient of […], the most haptotactic of the peptides studied was as follows. The results can be seen in FIG. 6. […] A similar, though more moderate, chemotaxis response to Cβ (SEQ ID NO:1) was obtained with HF.

EC cells (BAEC) = experiment: FACS analysis of binding of FITC-labeled peptides; type: cell-based, bovine; conditions: 10 μg/ml or 100 μg/ml, medium with 0.1% albumin
Procedure: EC and HF cell monolayers were washed and then incubated with trypsin-versene. Cells were then washed with growth medium and resuspended in medium with 0.1% albumin. FITC-labeled peptide-Cβ (SEQ ID NO:1) was incubated with 5×10^5 EC cells (10 μg/ml or 100 μg/ml) or with 2.5×10^5 HF cells (100 μg/ml) in medium with 0.1% albumin. FITC-labeled peptide-CαE (SEQ ID NO:3) and Cα (SEQ ID NO:4) (10 μg/ml) was incubated with 5×10^5 EC cells in medium with 0.1% albumin. Cells were then washed with PBS and 1% albumin. Cells were resuspended in PBS and 1% albumin and then filtered through a mesh for FACS analysis, in which the FITC tluorescence was measured for each cell.
The control is without FITC-labeled peptide (background fluorescence).
In competition experiments, cells were incubated with various concentrations of unlabeled Cβ (SEQ ID NO:1) for 15 mins, an aliquot of Cβ^FITC (4 mM) was added and the sample was subjected to FACS analysis. […] The Cβ^FITC (SEQ ID NO:1) uptake experiments best fitted a linear-quadratic curve-fit.

tested cell lines = experiment: Haptotaxis assay, statements over the tested cell lines; type: cell-based; conditions: ligands covalently bound to SB; for haptotactic response / cell binding to SB-ligand, in words: near confluent cell cultures
Procedure: (§1) Peptides or fibrinogen were covalently bound to CNBr activated sepharose beads (SB) (Pharmacia, Piscataway, N.J.) using techniques previously used to bind albumin, fibrinogen and thrombin. Briefly, CNBr-activated sepharose 4B (Pharmacia) was washed with 1N HCl, and suspended in the coupling buffer (pH 8.3), following the protocol supplied by the manufacturer. The peptides were dialyzed against the coupling buffer to remove Tris. Peptides (1 mg) were not highly water soluble. The peptides were dissolved in 1 mL 70% ethanol or dimethylformamide, and were then mixed into the coupling buffer containing 1 mL CNBr-activated sepharose. The suspension was gently agitated overnight, then centrifuged 500×g to pack the beads. This procedure covalently binds more than 95% of proteins or peptides including fibrinogen or peptides-CαE (SEQ ID NO:3), Cβ (SEQ ID NO:1) and preCγ (SEQ ID NO:2) to the beads determined by Abs280 readings of the solutions.
(§2) The migratory/adhesion response of cells to proteins (such as fibrinogen) or peptides covalently bound to SB was measured as follows. Cells were grown in 6 or 12 well plates to near confluence or in suspension until they covered about ½ to ⅔ of the plate surface. At that point, about […] of a suspension containing 50% v/v SB coated with the test protein or peptide were added to the plate and dispersed by gentle shaking for 1 min. The plate was then returned to the incubator and examined at different times by inverted phase microscopy.
(§3) The SB (naked or ligand bound) sedimented onto the nearly confluent cell layer and occasionally made physical contact with cell membranes on the plate (ascribed to Brownian motion or micro-convection currents). […] Typically, 300 beads (but not less then 200) were counted in each well and the ratio of SB bound to the cells relative to total number SB could be calculated (SB bound/SB total). Counting the percentage of SB attached to the cell surface at different time intervals provided a quantitative assay of the kinetics of the attachment of coated beads to cells. Negative control with uncoated SB or positive controls with SB-fibrinogen were employed with at least 3 wells measured for each. The statistical error was calculated from the square root of the total counts.
(§4) The peptides of the present invention were synthesized and tested in cell culture systems as described above. Essentially, peptides were covalently attached to sepharose beads to form SB-Cα (SEQ ID NO:4), SB-Cβ (SEQ ID NO:1), SB-PreCγ (SEQ ID NO:2), SB-Cγ (SEQ ID NO:5) and SB-CαE (SEQ ID NO:3), respectively, as was fibrinogen to form SB-Fib. The SB-peptide combination was then incubated with cultured cells. […] The haptotactic potency of the peptides is summarized in Table 3 with the percentage of SB-Fib/peptide attached to cells (by day 4) given in columns 2-5 of Table 3.

HF = experiment: Cell proliferation, MTS assay; type: cell-based, human; conditions: 0.4 nM-4 μM, 96 well plates
Procedure: Cell proliferation was evaluated by measuring cell density as a function of time by two different colorimetric assays. The MTS colorimetric assay (CellTitre 96 Aqueous Assay by Promega) is based on dehydrogenase conversion of MTS (methyl tetrazolium salt) by viable cells to […] (Ge M. Tang, G., Ryan. T. J. and Malik. A. B., “Fibrinogen degradation product fragment D induces endothelial cell detachment by activation of cell-mediated fibrinolysis”, J. Clin. Inves., 90:2508-2516 (1992)); the methylene blue (MB) assay is based on the staining of monolayer cells after their fixation, and reading the absorbence of the absorbed dye.
The MTS assay for viable cells was performed as follows: 30 μL of freshly prepared MTS/PMS were added to each well; following 2 hrs incubation at 37° C., the plates were placed on a computer driven microplate reader (Anthos HT-II, Salzburg, Austria), programmed to shake the plate for 1 minute before reading the optical density (OD) of the dye at 490 nm. The measurements were repeated following 4 and 6 hours of incubation.
Peptides (Cα (SEQ ID NO:4), […], PreCγ (SEQ ID NO:2) and CαE (SEQ ID NO:3)), up to 1 μg/mL or 100 μg/mL fibrinogen or thrombin (final concentrations) were added to the culture medium and cell numbers were assayed by day 3 using the MTS assay. The change in cell number was compared with that observed versus saline control. Of the 5 peptides tested at dosages up to 10 μg/mL (approximately equimolar to 1 μg/mL fibrinogen), none of the peptides exerted significant effect on cell proliferation (FIG. 7).

[1] = system: bovine aortic endothelial cells (EC, BAEC); experiment: Haptotaxis assay: attachment of ligand-coated SB to cultured cells; type: cell-based; conditions: for % Binding of peptide-coated SB to normal cultured cells: percentage of SB-ligand attached to cells by day 4
Procedure: as §1, §2, §3, §4

[2] = system: normal human skin fibroblasts (HF); experiment: Haptotaxis assay: attachment of ligand-coated sepharose beads (SB) to cultured cells; type: cell-based; conditions: for % Binding of peptide-coated SB to normal cultured cells: percentage of SB-ligand attached to cells by day 4
Procedure: as §1, §2, §3, §4

[3] = system: normal human keratinocytes; experiment: Haptotaxis assay: attachment of ligand-coated SB to cultured cells; type: cell-based; conditions: Keratinocyte; percentage of SB-ligand attached to cells by day 4
Procedure: as §1, §2, §3, §4

[4] = system: murine mammary adenocarcinoma cells (EMT-6); experiment: as above; type: cell-based; conditions: percentage of SB-ligand attached to cells by day 4
Procedure: as §1, §2, §3, §4

[5] = system: normal murine fibroblasts (MF); experiment: as above; type: cell-based; conditions: percentage of SB-ligand attached to cells by day 4
Procedure: as §1, §2, §3, §4

[6] = system: porcine smooth muscle cells (SMC); experiment: as above; type: cell-based; conditions: for % Binding of peptide-coated SB to normal cultured cells: percentage of SB-ligand attached to cells by day 4
Procedure: as §1, §2, §3, §4

[7] = system: human ovarian carcinoma cells (OV-1063); experiment: as above; type: cell-based; conditions: percentage of SB-ligand attached to cells by day 4
Procedure: as §1, §2, §3, §4

Substance	binding/uptake of FITC-labeled peptide by FACS, in words (EC cells (BAEC))	haptotactic response / cell binding to SB-ligand, in words (tested cell lines)	proliferative response of HF (MTS proliferation assay) (HF)	cell binding / haptotactic response to SB-ligand, in words [1]	% Binding of peptide-coated SB to normal cultured cells [2] [%]	% Binding of peptide-coated SB to normal cultured cells [1]	% Binding of peptide-coated SB to normal cultured cells [6] [%]	further results
EADHEGTHSTKRGHAKSRP (Equivalent to the c-terminus of fibrinogen alpha-chain) [Cα, reference compound]	did not bind	inactive	none of these peptides stimulated or inhibited proliferation					chemotactic response of BAEC, in words (BAEC; soluble gradient, up to 40 μg/ml, conditioned medium = 100% chemotaxis): elicited no response; haptotactic response / cell binding to SB-ligand, in words (tested cell lines; listed as peptide-Cα): no cell adhesive effects
FITC-labeled peptide Cα: FITC-labeled peptide Cα (SEQ ID NO:4), negative control (EADHEGTHSTKRGHAKSRP; not fully specified (N-terminus); also: FITC label, position not given here) [reference compound]	bound only slightly (non-specifically)							
FITC-labeled peptide Cγ: FITC-labeled peptide Cγ (SEQ ID NO:5) (LTIGEGQQHHLGGAKQAGDV; not fully specified (N-terminus); also: FITC label, position not given here) [reference compound]	bound only slightly (non-specifically)							
KTRWYSMKKTTMKIIPFNRL (Equivalent to an internal sequence of fibrinogen gamma-chain) [PreCγ]		significant haptotactic responses	none of these peptides stimulated or inhibited proliferation	greatest haptotactic response				chemotaxis, in words (BAEC; concentrations of up to 40 μM): significant chemotaxis; haptotactic response / cell binding to SB-ligand, in words (tested cell lines; listed as preCγ): highly haptotactic; also recorded: most potent
LTIGEGQQHHLGGAKQAGDV (Equivalent to the c-terminus of fibrinogen gamma-chain) [Cγ, control peptide homologous to the C-terminus of the fibrinogen γ chain, γ 392-411, reference compound]		minor negligible activity	none of these peptides stimulated or inhibited proliferation	only negligible effect				cell binding / haptotactic response to SB-ligand, in words ([1]; listed as peptide Cγ): bound variably
RGADYSLRAVRMKIRPLVTQ (Equivalent to the c-erminus of fibrinogen alpha-E-chain) [CαE, haptotactic peptide homologous to the C-terminus of the fibrinogen αE chain, αE 828-847]		to a lesser degree; also recorded: significant haptotactic responses	none of these peptides stimulated or inhibited proliferation					
SB-Cα: peptide-Cα (SEQ ID NO:4) covalently attached to sepharose beads (EADHEGTHSTKRGHAKSRP; also: attached to sepharose beads) [reference compound]		No cell binding			0	0%	0	number of cell lines bound by SB-ligand out of 7 tested (tested cell lines): none; % Binding of peptide-coated SB to normal cultured cells [3]: 0%; % Binding of peptide-coated SB to normal cultured cells [4]: 1%; % Binding of peptide-coated SB to normal cultured cells [5]: 0%; % Binding of peptide-coated SB to normal cultured cells [7]: 0%
SB-Cγ: peptide Cγ (SEQ ID NO:5) covalently attached to sepharose beads (LTIGEGQQHHLGGAKQAGDV; also: attached to sepharose beads) [reference compound]				Variable haptotaxis	2	2 to 93* %	1	% Binding of peptide-coated SB to normal cultured cells [4]: 2%; % Binding of peptide-coated SB to normal cultured cells [5]: 0%; % Binding of peptide-coated SB to normal cultured cells [7]: 0%
SB-PreCγ: peptide preCγ (SEQ ID NO:2) covalently attached to sepharose beads (KTRWYSMKKTTMKIIPFNRL; also: attached to sepharose beads)				bound	100	100%	98	cell binding to SB-ligand, in words [2]: bound; cell lines excepted from binding to SB-ligand (all other tested lines bound) (tested cell lines): with the exception of OV-1063, keratinocytes and cells derived from a leucocytic lineage; cell binding to SB-ligand, in words [6]: bound
